Assay results from ChEMBL document CHEMBL1201862, “PubChem BioAssay data set” (2004).
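Test compounds were applied to cells in 96-well plates for 48 hours at 5 doses. Here, GI50 denotes the concentration required for 50% inhibition of growth.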 Calls of active or inactive are those of the source. Cut-off read from the data, not from the text of the source: active = GI50 up to about 1.1 µM and inactive = higher.

Experiments:
Assay in all cases: NCI-60 cell line screen, 48 h
SF-295 = tested on: SF-295
786-0 = tested on: 786-0
NCI-H226 = tested on: NCI-H226
MOLT-4 = tested on: MOLT-4
SK-OV-3 = tested on: SK-OV-3
EKVX = tested on: EKVX
COLO 205 = tested on: COLO 205
SK-MEL-5 = tested on: SK-MEL-5
A498 = tested on: A498
SK-MEL-28 = tested on: SK-MEL-28
OVCAR-8 = tested on: OVCAR-8
CCRF-CEM = tested on: CCRF-CEM
KM12 = tested on: KM12
HCC 2998 = tested on: HCC 2998
LOX IMVI = tested on: LOX IMVI
M14 = tested on: M14
A549 = tested on: A549
SR = tested on: SR
SK-MEL-2 = tested on: SK-MEL-2
IGROV-1 = tested on: IGROV-1
HL-60 = tested on: HL-60
BT-549 = tested on: BT-549
Malme-3M = tested on: Malme-3M
NCI-H522 = tested on: NCI-H522
SF-268 = tested on: SF-268
UACC-257 = tested on: UACC-257
SF-539 = tested on: SF-539
OVCAR-4 = tested on: OVCAR-4
MCF7 = tested on: MCF7
OVCAR-5 = tested on: OVCAR-5
HT-29 = tested on: HT-29
Hs-578T = tested on: Hs-578T
CAKI-1 = tested on: CAKI-1
SW-620 = tested on: SW-620
HCT-15 = tested on: HCT-15
SN12C = tested on: SN12C
NCI-H23 = tested on: NCI-H23
SNB-75 = tested on: SNB-75
NCI/ADR-RES = tested on: NCI/ADR-RES
MDA-N = tested on: MDA-N
ACHN = tested on: ACHN
MDA-MB-435 = tested on: MDA-MB-435
RXF 393 = tested on: RXF 393
UACC-62 = tested on: UACC-62
T47D = tested on: T47D
HOP-62 = tested on: HOP-62
RPMI-8226 = tested on: RPMI-8226
HCT-116 = tested on: HCT-116
UO-31 = tested on: UO-31
OVCAR-3 = tested on: OVCAR-3
PC-3 = tested on: PC-3
SNB-19 = tested on: SNB-19
HOP-92 = tested on: HOP-92
DU-145 = tested on: DU-145
K562 = tested on: K562
MDA-MB-231 = tested on: MDA-MB-231
U-251 = tested on: U-251
TK-10 = tested on: TK-10

With `CCC(=O)Nc1ccc(NCC(=O)Nc2ccc(OC)cc2)cc1` the GI50 (SF-295) was 46.7 µM (inactive), the GI50 (786-0) was 20.3 µM (inactive) and the GI50 (NCI-H226) was 12.4 µM (inactive). The GI50 (MOLT-4) was 39 µM (inactive), the GI50 (SK-OV-3) was 8.67 µM (inactive) and the GI50 (EKVX) was 16.7 µM (inactive). The GI50 (COLO 205) was 31.8 µM (inactive), the GI50 (SK-MEL-5) was 17.5 µM (inactive) and the GI50 (A498) was 27.7 µM (inactive). For the same molecule, the GI50 (SK-MEL-28) was 49.1 µM (inactive), the GI50 (OVCAR-8) was 19.7 µM (inactive) and the GI50 (CCRF-CEM) was 25.4 µM (inactive). The GI50 (KM12) was 17.4 µM (inactive), the GI50 (HCC 2998) was 6.76 µM (inactive) and the GI50 (LOX IMVI) was 16.6 µM (inactive). The GI50 (M14) was 49.3 µM (inactive), the GI50 (A549) was 54 µM (inactive) and the GI50 (SR) was 31.8 µM (inactive). For the same molecule, the GI50 (SK-MEL-2) was 18.4 µM (inactive), the GI50 (IGROV-1) was 25.8 µM (inactive) and the GI50 (HL-60) was 28.2 µM (inactive). The GI50 (BT-549) was 23.2 µM (inactive), the GI50 (Malme-3M) was 21.6 µM (inactive) and the GI50 (NCI-H522) was 15.2 µM (inactive). The GI50 (SF-268) was 17.7 µM (inactive), the GI50 (UACC-257) was 7.8 µM (inactive) and the GI50 (SF-539) was 17.5 µM (inactive). The GI50 (OVCAR-4) was 13.2 µM (inactive), the GI50 (MCF7) was 17.1 µM (inactive) and the GI50 (OVCAR-5) was 17.4 µM (inactive). The GI50 (HT-29) was 20.9 µM (inactive), the GI50 (Hs-578T) was 30.3 µM (inactive) and the GI50 (CAKI-1) was 13.5 µM (inactive). For the same molecule, the GI50 (SW-620) was 35.2 µM (inactive), the GI50 (HCT-15) was 32.8 µM and the GI50 (SN12C) was 18.1 µM (inactive). For the same molecule, the GI50 (NCI-H23) was 19.9 µM (inactive), the GI50 (SNB-75) was 13.7 µM (inactive) and the GI50 (NCI/ADR-RES) was 28.1 µM (inactive). The GI50 (MDA-N) was 29.8 µM (inactive), the GI50 (ACHN) was 40.5 µM (inactive) and the GI50 (MDA-MB-435) was 30.5 µM (inactive). For the same molecule, the GI50 (RXF 393) was 16.4 µM (inactive), the GI50 (UACC-62) was 19.1 µM (inactive) and the GI50 (T47D) was 21.1 µM (inactive). The GI50 (HOP-62) was 2.99 µM (inactive), the GI50 (RPMI-8226) was 32.9 µM (inactive) and the GI50 (HCT-116) was 26.1 µM (inactive). The GI50 (UO-31) was 45.5 µM (inactive), the GI50 (OVCAR-3) was 25.2 µM (inactive) and the GI50 (PC-3) was 26.2 µM (inactive). For the same molecule, the GI50 (SNB-19) was 13.2 µM (inactive), the GI50 (HOP-92) was 23.8 µM (inactive) and the GI50 (DU-145) was 31.8 µM (inactive). For the same molecule, the GI50 (K562) was 35.6 µM (inactive).
With `Oc1ccc2ccccc2c1/N=N/c1ccc(/N=N/c2ccccc2)cc1` the GI50 (SF-295) was > 100 µM (inactive), the GI50 (786-0) was > 100 µM (inactive) and the GI50 (NCI-H226) was > 100 µM (inactive). For the same molecule, the GI50 (MOLT-4) was > 100 µM (inactive), the GI50 (SK-OV-3) was > 100 µM (inactive) and the GI50 (EKVX) was > 100 µM (inactive). The GI50 (COLO 205) was > 100 µM (inactive), the GI50 (SK-MEL-5) was > 100 µM (inactive) and the GI50 (A498) was > 100 µM (inactive). The GI50 (SK-MEL-28) was > 100 µM (inactive), the GI50 (OVCAR-8) was > 100 µM (inactive) and the GI50 (CCRF-CEM) was > 100 µM (inactive). The GI50 (KM12) was 84.9 µM (inactive), the GI50 (MDA-MB-231) was 89.1 µM (inactive) and the GI50 (LOX IMVI) was > 100 µM (inactive). The GI50 (M14) was > 100 µM (inactive), the GI50 (A549) was 74.5 µM (inactive) and the GI50 (SR) was 23.6 µM (inactive). For the same molecule, the GI50 (SK-MEL-2) was > 100 µM (inactive), the GI50 (IGROV-1) was > 100 µM (inactive) and the GI50 (HL-60) was 0.43 µM (active). The GI50 (BT-549) was > 100 µM (inactive), the GI50 (Malme-3M) was > 100 µM (inactive) and the GI50 (NCI-H522) was 86.3 µM (inactive). The GI50 (SF-268) was > 100 µM (inactive), the GI50 (UACC-257) was > 100 µM (inactive) and the GI50 (OVCAR-4) was > 100 µM (inactive). The GI50 (OVCAR-5) was > 100 µM (inactive), the GI50 (HT-29) was > 100 µM (inactive) and the GI50 (U-251) was 46.3 µM (inactive). The GI50 (Hs-578T) was > 100 µM (inactive), the GI50 (CAKI-1) was > 100 µM (inactive) and the GI50 (SW-620) was > 100 µM (inactive). For the same molecule, the GI50 (HCT-15) was greater than 100 µM, the GI50 (SN12C) was > 100 µM (inactive) and the GI50 (NCI-H23) was > 100 µM (inactive). The GI50 (SNB-75) was 70.1 µM (inactive), the GI50 (NCI/ADR-RES) was > 100 µM (inactive) and the GI50 (MDA-N) was 50 µM (inactive). For the same molecule, the GI50 (ACHN) was > 100 µM (inactive), the GI50 (MDA-MB-435) was 64.1 µM (inactive) and the GI50 (RXF 393) was > 100 µM (inactive). For the same molecule, the GI50 (UACC-62) was 75.7 µM (inactive), the GI50 (T47D) was > 100 µM (inactive) and the GI50 (HOP-62) was > 100 µM (inactive). For the same molecule, the GI50 (RPMI-8226) was > 100 µM (inactive), the GI50 (HCT-116) was 93.1 µM (inactive) and the GI50 (UO-31) was 59 µM (inactive). For the same molecule, the GI50 (TK-10) was > 100 µM (inactive), the GI50 (OVCAR-3) was > 100 µM (inactive) and the GI50 (PC-3) was > 100 µM (inactive). For the same molecule, the GI50 (SNB-19) was > 100 µM (inactive), the GI50 (DU-145) was > 100 µM (inactive) and the GI50 (K562) was > 100 µM (inactive).
